What was measured:
[1] = tested on: wt and cTnI-G203S cardiac myocytes; parameters: method as in PMID 19166857, PMID 24969422, PMID 24958783; details: cited from earlier work
[2] = biological target: T1, cardiac L-type calcium channel (ICa-L) (Mus musculus, UniProt Q01815); assay: Whole-cell patch-clamp of ICa-L currents in ventricular myocytes; type: cell-based; details: cTnI-G203S myocytes, in vitro 1 μM peptide
T1 construct: measure changes in ICa-L currents ([13]), and stimulate calcium transients in intact ventricular myocytes; endogenous in cells; host or cells: ventricular myocytes isolated from wt (human cTnI transgene) and cTnI-G203S mice
Experimental: The whole-cell configuration of the patch-clamp technique was used to measure changes in ICa-L currents ([13]), and stimulate calcium transients in intact ventricular myocytes. Detailed methods are provided in SI Appendix.
Supporting Materials and Methods
Isolation of ventricular myocytes
Myocytes were isolated from wt and cTnI-G203S mice. Animals were anesthetized with pentobarbitone sodium (240 mg/kg) via intraperitoneal injection prior to excision of the heart. Cells were isolated as previously described (1-3). Mouse hearts were excised, cannulated onto a Langendorff apparatus via the aorta, and perfused with Krebs-Henseleit Buffer (KHB) containing […]
O2/CO2 at 37°C) for 4 min at 37°C. […]
The whole-cell configuration of the patch-clamp technique was used to measure changes in ICa-L currents (4), and stimulate calcium transients in intact ventricular myocytes. […] Currents were measured in extracellular modified Tyrode’s solution containing (in mM): NaCl 140, CsCl 5.4, CaCl2 2.5, MgCl2 0.5, HEPES 5.5 and glucose 11 (pH adjusted to 7.6 with NaOH). Macroscopic currents were recorded using an Axopatch 200B voltage-clamp amplifier (Molecular Devices) with a Digidata 1440A interface and pClamp10.5 software (Molecular Devices). […] The time course of changes in Ca2+ conductance were monitored by applying a 100 ms test pulse to 10 mV once every 10 seconds. […]

Sequence: QQLEEDLKGYLDWITQAE [AID-TAT]
- elevated Ψm in response to activation of ICa-L [1]: attenuates elevated Ψm
- ICa-L current density [2]: no significant alteration
- ICa-L inactivation rate (tau) ([2]; 37 °C): restored ICa-L inactivation rate to wt levels

— article PMC7502707, “Characterization and validation of a preventative therapy for hypertrophic cardiomyopathy in a murine model of the disease” (Proceedings of the National Academy of Sciences of the …, 2020)
